Patent US9308215B2, “Avermectins and milbemycins as anti-mycobacterial agents” (priority 2013, dated 2016)
Converted amounts (≈) assume the structure as drawn. Where two headings read alike, the source gives them in different places.

Legend:
M. avium = assay: MIC against mycobacterial species; assay type: cell-based, Mycobacterium avium
[1] = mice; cited from earlier work
M. tuberculosis [2] = assay: microbe, parasite or virus in culture; assay type: cell-based, Mycobacterium tuberculosis
[3] = system: representative Gram-positive and Gram-negative bacteria; assay type: cell-based
M. smegmatis = assay: microbe, parasite or virus in culture; assay type: cell-based, Mycobacterium smegmatis; conditions: strain mc^2155, WT
A. baumannii = assay: microbe, parasite or virus in culture; assay type: cell-based, Acinetobacter baumannii; conditions: strain ATCC 1960, WT
S. lividans = assay: microbe, parasite or virus in culture; assay type: cell-based, Streptomyces lividans; conditions: strain 1326, WT
[4] = system: M. tuberculosis H37Rv and mc25857 (an MDR isolate); assay type: cell-based, Mycobacterium tuberculosis; conditions: in vitro against M. tuberculosis, survival kinetics
R. jostii = assay: microbe, parasite or virus in culture; assay type: cell-based, Rhodococcus jostii; conditions: strain RHA1, WT
M. chelonae = assay: MIC against mycobacterial species; assay type: cell-based; conditions: M. chelonae
M. gordonae = assay: MIC against mycobacterial species; assay type: cell-based; conditions: M. gordonae 324
K. rhizophila = assay: microbe, parasite or virus in culture; assay type: cell-based, Kocuria rhizophila; conditions: WT
M. microti = assay: microbe, parasite or virus in culture; assay type: cell-based
M. aurum = assay: MIC against mycobacterial species; assay type: cell-based; conditions: M. aurum
S. aureus = assay: microbe, parasite or virus in culture; assay type: cell-based, Staphylococcus aureus; conditions: strain ATCC 25923, WT
[5] = Horses, 200 μg/kg oral; cited from earlier work
[6] = 0.2 mg/kg oral, cited from earlier work
[7] = cited from earlier work; for Cmax / AUC / T½: Humans
M. tuberculosis Erdman [8] = assay: Mouse in vivo TB model, chronic (Balb/C); conditions: 10 mg/kg bw PO
M. bovis BCG = assay: microbe, parasite or virus in culture; assay type: cell-based, Mycobacterium bovis; conditions: strain BCG Pasteur, WT
M. tuberculosis Erdman [9] = assay: Mouse in vivo TB model, acute (GKO); conditions: for Toxicity / Log10 cfu reduction (lungs): Acute (GKO), Erdman; for Log10 cfu reduction (lungs): 50/35/15 H2O/PEG300/PG
Experimental: Mice were low-dose aerosol infected (50-100 bacteria). In the acute model, immune compromised mice were left untreated for 13 days to allow the infection to become established before 9 days of consecutive drug therapy was initiated. Drugs were administered by oral gavage. Log10 cfu reductions in the lungs were compared to untreated group. Rifampin was included as an internal control. An ordinary one-way ANOVA Bonferroni's multiple comparisons test was used to calculate p values. A p value<0.05 indicates statistically significant differences compared to the control group (vehicle).
Using an acute TB model, immune compromised mice were low-dose aerosol infected and then left untreated for 13 days to allow the infection to become established before 9 days of consecutive drug therapy was initiated. Drugs were administered orally and Log10 cfu reductions in the lungs were compared to and untreated group (vehicle) to rifampin treatment. […] Rifampicin was included as control.

[10] = single dose, clinical studies, cited from earlier work
[11] = Dogs, 250 μg/kg oral; cited from earlier work
P. aeruginosa = assay: microbe, parasite or virus in culture; assay type: cell-based, Pseudomonas aeruginosa; conditions: strain PA01 (H103), WT
E. coli = assay: microbe, parasite or virus in culture; assay type: cell-based, Escherichia coli; conditions: strain O157:H7, WT
M. intracellulare = assay: MIC against mycobacterial species; assay type: cell-based
[12] = ivermectin: extra-label use; selamectin, moxidectin: therapeutic doses; cited from earlier work
M. phlei = assay: MIC against mycobacterial species; assay type: cell-based; conditions: M. phlei
M. tuberculosis [13] = conditions: Jayaram et al. 2003; cited from earlier work
[14] = less sensitive strains CI15072, CI12081, BC-MDR2, BC-DS4 and BC-DS5

CC[C@H](C)[C@H]1O[C@]2(CC[C@@H]1C)C[C@@H]1C[C@@H](C/C=C(\C)[C@@H](O[C@H]3C[C@H](OC)[C@@H](O[C@H]4C[C@H](OC)[C@@H](O)[C@H](C)O4)[C@H](C)O3)[C@@H](C)/C=C/C=C3\CO[C@@H]4[C@H](O)C(C)=C[C@@H](C(=O)O1)[C@]34O)O2 [Ivermectin]
MIC (M. avium; M. avium 702): >256 µg/mL | MIC (M. avium; M. avium 715): >256 µg/mL | MIC (M. avium; M. avium ATCC 25291): >128 µg/mL | LD50 [1]: 25 mg/kg body weight | MIC50 (M. tuberculosis [2]; [14]): < 8 µg/mL | MIC90 (M. tuberculosis [2]; [14]): 24 µg/mL (≈ 27.4 µM) | In vitro MIC90 (M. tuberculosis [2]; strain 1254, WT): 8 µg/mL | In vitro MIC90 (M. tuberculosis [2]; strain BC-DS1 (drug-susceptible)): 4 to 16 µg/mL | In vitro MIC90 (M. tuberculosis [2]; strain BC-DS3 (drug-susceptible)): 8 to 16 µg/mL | value in parentheses in MIC90 column (MIC50) (M. tuberculosis [2]; strain BC-DS4): 8 µg/mL | In vitro MIC90 (M. tuberculosis [2]; strain BC-DS4 (drug-susceptible)): 64 µg/mL | value in parentheses in MIC90 column (MIC50) (M. tuberculosis [2]; strain BC-DS5): 8 µg/mL | In vitro MIC90 (M. tuberculosis [2]; strain BC-DS5 (drug-susceptible)): > 128 µg/mL | value in parentheses in MIC90 column (MIC50) (M. tuberculosis [2]; strain BC-MDR2): 8 µg/mL | In vitro MIC90 (M. tuberculosis [2]; strain CDC 1551, WT): 4 to 8 µg/mL | In vitro MIC90 (M. tuberculosis [2]; strain Erdman, WT): 8 µg/mL | In vitro MIC90 (M. tuberculosis [2]; strain H37Rv, WT): 6 µg/mL | Inhibitory effects [3]: not observed | In vitro MIC90 (M. smegmatis): 8 µg/mL | In vitro MIC90 (A. baumannii): >256 µg/mL | In vitro MIC90 (S. lividans): >256 µg/mL | bactericidal or bacteriostatic [4]: Bactericidal | In vitro MIC90 (R. jostii): >256 µg/mL | MIC (M. chelonae): 4 µg/mL (≈ 4.57 µM) | MIC (M. gordonae): 4 µg/mL (≈ 4.57 µM) | In vitro MIC90 (K. rhizophila): >256 µg/mL | MIC (M. microti; M. microti 1601): 4 µg/mL (≈ 4.57 µM) | MIC (M. microti; M. microti 1608): 256 µg/mL (≈ 293 µM) | MIC (M. aurum): 2 µg/mL (≈ 2.29 µM) | In vitro MIC90 (S. aureus): >256 µg/mL | AUC [5]: 3184 ng·h/mL | Cmax [5]: 44 ng/mL | T½ [5]: 20 h | Cmax ([6]; Mouse (lung)): 20 ng/mL | AUC ([6]; Mouse (plasma)): 573 ng·h/mL | Cmax ([6]; Mouse (plasma)): 20 ng/mL | T½ ([6]; Mouse (plasma)): 9.3 h | Cmax ([7]; 12 mg (165 μg/kg) oral): 47 ng/mL | AUC ([7]; 30 mg (347-541 μg/kg) oral): 2819 ng·h/mL | Cmax ([7]; 30 mg (347-541 μg/kg) oral): 85 ng/mL | T½ ([7]; 30 mg (347-541 μg/kg) oral): 19 h | AUC ([7]; 30 mg (fed) oral): 4564 ng·h/mL | Cmax ([7]; 30 mg (fed) oral): 260 ng/mL | T½ ([7]; 30 mg (fed) oral): 15 h | AUC ([7]; 90 mg (1031-1466 μg/kg) oral): 2910 ng·h/mL | Cmax ([7]; 90 mg (1031-1466 μg/kg) oral): 158 ng/mL | T½ ([7]; 90 mg (1031-1466 μg/kg) oral): 19 h | AUC ([7]; 120 mg (1404-2000 μg/kg) oral): 4547 ng·h/mL | Cmax ([7]; 120 mg (1404-2000 μg/kg) oral): 247 ng/mL | T½ ([7]; 120 mg (1404-2000 μg/kg) oral): 19 h | plasma concentrations ([7]; healthy volunteers, 120 mg): ca. 0.25 μg/mL | maximal concentration in plasma ([7]; standard dose of 12 mg): ca. 50 ng/mL | Toxicity (M. tuberculosis Erdman [8]): None | Log10 cfu reduction (lungs) (M. tuberculosis Erdman [8]; 50/35/15 H2O/PEG300/PG): −0.11 Log10 cfu | In vitro MIC90 (M. bovis BCG): 4 µg/mL | activity in vivo in acute TB model (M. tuberculosis Erdman [9]; 5 and 10 mg/kg doses, oral, Erdman 107): did not show activity | Toxicity (M. tuberculosis Erdman [9]; 5 mg/kg bw PO): None | Log10 cfu reduction (lungs) (M. tuberculosis Erdman [9]; 5 mg/kg bw PO): 0.32 Log10 cfu | Toxicity (M. tuberculosis Erdman [9]; 10 mg/kg bw PO): None | Log10 cfu reduction (lungs) (M. tuberculosis Erdman [9]; 10 mg/kg bw PO): 0.4 Log10 cfu | dose reported safe in humans [10]: ≤ 120 mg | dose reported safe in humans ([10]; listed as ivermectin): 120 mg | AUC [11]: 5600 ng·h/mL | Cmax [11]: 132 ng/mL | T½ [11]: 80 h | In vitro MIC90 (P. aeruginosa): >256 µg/mL | In vitro MIC90 (E. coli): >256 µg/mL | MIC (M. intracellulare; M. intracellulare 1403 ATCC35761): 4 µg/mL (≈ 4.57 µM) | MIC (M. intracellulare; M. intracellulare 1403 Trudeau): 4 µg/mL (≈ 4.57 µM) | MIC (M. intracellulare; M. intracellulare D673): 8 µg/mL (≈ 9.14 µM) | MIC (M. intracellulare; M. intracellulare FM): 8 µg/mL (≈ 9.14 µM) | toxicity in dogs lacking MDR1 P-glycoprotein / homozygous MDR1 mutation [12]: severe signs of neurotoxicity | MIC (M. phlei): 32 µg/mL (≈ 36.6 µM)

CO[C@H]1/C=C/O[C@@]2(C)Oc3c(C)c(O)c4c(O)c(c(/C=N/N5CCN(C)CC5)c(O)c4c3C2=O)NC(=O)/C(C)=C\C=C\[C@H](C)[C@H](O)[C@@H](C)[C@@H](O)[C@@H](C)[C@H](OC(C)=O)[C@@H]1C [Rifampin]
AUC24/MIC value required for 1 log 10 CFU/ml reduction, relative to avermectins and milbemycins (M. tuberculosis [13]): more than 10 times higher
